Current change vs dofetilide control, less the hit threshold data for 29 molecules are collected here from PubChem BioAssay AID2103 (Johns Hopkins Ion Channel Center, 2009).

In the test the target is Voltage-gated inwardly rectifying potassium channel KCNH2 (Homo sapiens) (UniProt Q12809). Put plainly: relief of dofetilide hERG inhibition – cell-based, Ionworks automated patch clamp, CHO-hERG, secondary (AID 2103). Conditions: dofetilide IC70, at 10 µM, stronger effect = higher value.

Structures are written as SMILES. Activity calls are given as the source filed them.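 The calls were made as follows: active = hERG current rise at or above blocker-only control mean plus 3 SD, readout 0 or more; inactive = the rest.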

Chain of Voltage-gated inwardly rectifying potassium channel KCNH2 (Homo sapiens) (Q12809 whole entry, looked up): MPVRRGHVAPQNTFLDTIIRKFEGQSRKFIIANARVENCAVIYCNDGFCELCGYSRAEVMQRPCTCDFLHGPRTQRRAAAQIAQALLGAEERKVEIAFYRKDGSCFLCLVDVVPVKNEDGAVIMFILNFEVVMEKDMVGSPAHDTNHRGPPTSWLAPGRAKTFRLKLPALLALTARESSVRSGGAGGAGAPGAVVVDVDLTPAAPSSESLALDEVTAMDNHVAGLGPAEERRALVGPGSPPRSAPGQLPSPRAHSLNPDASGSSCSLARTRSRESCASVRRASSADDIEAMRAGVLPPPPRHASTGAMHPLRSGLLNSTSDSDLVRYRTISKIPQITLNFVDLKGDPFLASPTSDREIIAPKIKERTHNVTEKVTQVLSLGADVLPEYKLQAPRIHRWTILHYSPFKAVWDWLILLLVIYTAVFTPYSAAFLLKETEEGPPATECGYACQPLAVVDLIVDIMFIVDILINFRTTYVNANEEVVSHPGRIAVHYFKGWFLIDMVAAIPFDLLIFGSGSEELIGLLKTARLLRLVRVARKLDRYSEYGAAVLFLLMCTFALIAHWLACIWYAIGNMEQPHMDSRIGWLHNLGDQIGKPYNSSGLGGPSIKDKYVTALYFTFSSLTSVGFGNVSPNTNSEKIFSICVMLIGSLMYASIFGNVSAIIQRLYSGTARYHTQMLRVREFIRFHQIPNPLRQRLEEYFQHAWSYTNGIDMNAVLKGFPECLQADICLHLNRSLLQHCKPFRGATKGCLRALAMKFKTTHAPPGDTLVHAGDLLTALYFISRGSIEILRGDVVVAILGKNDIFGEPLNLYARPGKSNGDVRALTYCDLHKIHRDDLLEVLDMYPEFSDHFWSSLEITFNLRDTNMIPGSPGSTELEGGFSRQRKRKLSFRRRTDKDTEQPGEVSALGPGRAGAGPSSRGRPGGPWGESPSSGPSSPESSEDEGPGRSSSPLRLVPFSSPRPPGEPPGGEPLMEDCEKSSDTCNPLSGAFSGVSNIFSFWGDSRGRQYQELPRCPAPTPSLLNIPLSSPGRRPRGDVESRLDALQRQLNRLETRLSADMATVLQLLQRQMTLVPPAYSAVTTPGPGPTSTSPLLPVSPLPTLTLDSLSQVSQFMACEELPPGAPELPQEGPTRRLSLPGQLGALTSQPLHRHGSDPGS

Consider `O=C(c1csc(Nc2ccccc2Cl)n1)N1CCCC1`, for which the current change vs dofetilide control, less the hit threshold was -45.9% (inactive).
With `Fc1ccc2nc(Nc3nc4c(F)cc(F)cc4s3)sc2c1`, the current change vs dofetilide control, less the hit threshold is -49% (inactive).
Consider `NC(=O)C1CCN(C(=O)c2cc3c(s2)CCCC3)CC1`, for which the current change vs dofetilide control, less the hit threshold is -52.8% (inactive).
Take `CC(=O)c1c(C)c2c(n1CCN(C)C)CCCC2`: the current change vs dofetilide control, less the hit threshold was -56.2% (inactive).
Then `CCOC(=O)N1CCN(C(=O)c2ccc(Cl)c(S(=O)(=O)Nc3ccccc3)c2)CC1`, with -58.5% (inactive).
Then `CCc1ccc2nc(NC(=O)c3cc(C)on3)sc2c1`, with -43.6% (inactive); and `N#Cc1c(NC(=O)c2cc(-n3cnnc3)ccc2Cl)sc2c1CCCC2`, with -43.1% (inactive).
With `COc1ccc(C(=O)Nc2ccccc2C(=O)O)cc1Cl` the figure was -54.3% (inactive).
For `Cc1nonc1CN(C)C(=O)c1ccc(OC2CCN(Cc3ccccn3)CC2)cc1`, the current change vs dofetilide control, less the hit threshold was -69.9% (inactive).
Turning to `CCOC(=O)Cc1nc2ccccc2o1`, the current change vs dofetilide control, less the hit threshold was -49.3% (inactive).
With `Cc1ccc(C)c2sc(NC(=O)c3nc4ccccc4s3)nc12` the figure was -46.9% (inactive); with `CCOC(=O)N1CCN(C(=O)c2ccc(CN(c3ccc(C)c(C)c3)S(C)(=O)=O)cc2)CC1`, -30.1% (inactive).
Then `CCc1ccc(C(C)NC(=O)C2CCCC2)cc1` (centres undefined), with -41.5% (inactive); and `CC1CN(S(=O)(=O)c2ccc(-c3nc4ccccc4s3)cc2)CC(C)O1` (centres undefined), with -45% (inactive); and `COC(=O)c1ccc(CSc2ncnc3sc(C)c(C)c23)o1`, with -48.9% (inactive).
With `O=C(O)c1ccc(Cl)cc1Nc1nc2cc(Cl)ccc2o1` the figure was -48.7% (inactive); with `CN(C(=O)c1ccc(Cl)c(S(=O)(=O)N2CCOCC2)c1)c1ccccc1C(=O)O`, -64.9% (inactive).
As to `Clc1cccc(OCCCN2CCCC2)c1Cl`, the current change vs dofetilide control, less the hit threshold is -77.4% (inactive).
Then `CCCN(C(=O)c1ccco1)c1nnc(-c2ccncc2)s1`, with -29.1% (inactive).
Then `COC(=O)c1c(NS(=O)(=O)c2ccc3ccccc3c2)sc2c1CCCC2`, with -46.2% (inactive); and `Cc1nc2ccccc2n1-c1ccccc1`, with -51.1% (inactive).
Consider `CC(C)Oc1c(Cl)cc(CNC(C)(C)CO)cc1Cl`, for which the current change vs dofetilide control, less the hit threshold is -52.1% (inactive).
With `CCOC(=O)C1CCN(S(=O)(=O)c2cccc3nonc23)CC1` the figure was -37.7% (inactive); with `CN(Cc1ccccc1)C(=O)CCc1ccccc1`, -53.5% (inactive); with `Cc1ccc(Cn2nnc3c(=O)n(CC(=O)N4CCCc5ccccc54)cnc32)cc1`, -41.2% (inactive).
Then `CCOC(=O)c1c(C)[nH]c(C)c1S(=O)(=O)N1CCCCC1`, with -31.9% (inactive); and `Cc1ccc(C(=O)Nc2nc3ccccc3c(=O)s2)cc1`, with -52.6% (inactive); and `O=C1C2CC=CCC2C(=O)N1c1ccc(Cc2ccncc2)cc1` (centres undefined), with -31.9% (inactive).
As to `Cc1ccc(C(C#N)c2ccc3c(C(F)(F)F)cc(C(F)(F)F)nc3n2)cc1` (centres undefined), the current change vs dofetilide control, less the hit threshold is -59.8% (inactive).
